Experimental data published in patent publication US4560679A, “Organosilicon compounds and antitumor agents containing the compound as effective component” (Sanwa Kagaku Kenkyusho Co. Ltd., priority 1982, dated 1985).
Converted amounts (≈) assume the structure as drawn. Read-outs that look alike come from different tables or passages of the source.

How the values were obtained:
acute toxicity = details: mouse, in vivo, ICR female mice, observed 7 days
Excerpt: Each of compounds according to the invention was suspended in 0.1% P-1570 aqueous solution of sugar ester or 0.5% CMC aqueous solution. The suspension abdominally or orally dosed to ICR female mice (weight: 20±1 g).

[1] = tested on: B-16 melanoma carcinoma (B-16); test: carcinoma cell weight inhibiting effect in mice (B-16); type: in vivo; details: BDF mice; oral, 1/5 LD50 one time/day for 5 days; 21 days from final dosage
Excerpt: (§1) (4) B-16 melanoma carcinoma (hereinafter referred to as "B-16").
(§2) Test 2 (carcinoma cell weight inhibiting effect in mice)
(§3) B-16 and EAC were given to BDF and ICR-CD mice, respectively by a hypodermic injection. 1.0×10^5 cells on B-16 and 5.0×10^6 cells on EAC were given to each mouse. Each of the compounds according to the invention was orally dosed for 5 days in an amount of 1/5 LD50 (one time/day). After lapsed 21 days from the final dosage, the carcinoma of each mouse was exenterated, measured its weight and calculated a mean weight as the inhibiting ratio which is shown in the following Table.

[2] = tested on: Ehrlich ascites carcinoma (EAC); test: carcinoma cell weight inhibiting effect in mice (EAC); type: in vivo; details: ICR-CD mice; oral, 1/5 LD50 one time/day for 5 days; 21 days from final dosage
Excerpt: (§4) (2) Ehrlich ascites carcinoma (hereinafter referred to as "EAC"),
as §2, §3

[3] = tested on: Ehrlich ascites carcinoma (EAC); test: proliferation inhibiting effect in explantation (EAC); type: cell-based; details: 72 h, 3 days culture with compound, living cells by dye-exclusion (tripan blue)
Method: (§5) Test 1 (proliferation inhibiting effect in explantation)
(§6) Following carcinomata are employed.
as §4
(§7) 1×10^5 cells of each carcinoma are cultured for 24 hours in an ox serum eagle culture solution with use of a culture test tube and a carbon dioxide gas culturing device (5% CO2, 37° C.). After 24 hours, the used culture solution was flowed-out and each 0.1 ml of a freshly prepared culture solution containing a compound according to the invention was added to further continue the culture for 3 days. After completion of the culture, number of living cells was measured with use of a dye-exclusion method due to tripan blue dying. To each of control groups, 0.1 ml of the same culture solution but containing no compound according to the invention was added.
(§8) Concentrations on 50% inhibition of the carcinoma cells (IC50) were determined between the testing groups and control groups, according to the manner as stated above.

[4] = tested on: Lewis lung carcinoma (LLC); test: proliferation inhibiting effect in explantation (LLC); type: cell-based; details: 72 h, 3 days culture with compound, living cells by dye-exclusion (tripan blue)
Method: as §5, §6
(1) Lewis lung carcinoma (hereinafter referred to as "LLC"),
as §7, §8

K.B. carcinoma (KB) = test: proliferation inhibiting effect in explantation (KB); type: cell-based; details: 72 h, 3 days culture with compound, living cells by dye-exclusion (tripan blue)
Method: as §5, §6
(3) K.B. carcinoma (hereinafter referred to as "KB"), and
as §7, §8

[5] = tested on: B-16 melanoma carcinoma (B-16); test: proliferation inhibiting effect in explantation (B-16); type: cell-based; details: Mus musculus, B16, 72 h, 3 days culture with compound, living cells by dye-exclusion (tripan blue)
Method: as §5, §6, §1, §7, §8

[6] = ip, abdominal dosage, read-out: Acute Toxicity LD50, Abdominal Dosage
[7] = oral dosage, read-out: Acute Toxicity LD50, Oral Dosage

Row | Structure (SMILES) | LD50 at 168 h (acute toxicity; [6]) [mg/kg] | LD50 at 168 h (acute toxicity; [7]) [mg/kg] | inhibiting ratio (carcinoma weight), B-16 [1] | inhibiting ratio (carcinoma weight), EAC [2] | IC50 [3] [µg/mL] | IC50 [4] [µg/mL] | IC50 (K.B. carcinoma (KB)) [µg/mL] | IC50 [5] [µg/mL]
1 | CNCCSCC[Si](C)(C)C [SKK-009] | 189 | 800 |  |  |  |  |  | 
2 | C[Si](C)(C)CCSCCNC1CCCCC1 [SKK-010] | 152 | 825 |  |  |  |  |  | 
3 | C=CCNCCSCC[Si](C)(C)C [SKK-011] | 134 | 846 |  |  |  |  |  | 
4 | C[Si](C)(C)CCSCCNC(=O)c1ccccc1 [SKK-012] | 1190 | > 2000 | 62 | 76 | 15 (≈ 53.3 µM) | 4.3 (≈ 15.3 µM) | 17 (≈ 60.4 µM) | 16 (≈ 56.8 µM)
5 | C[Si](C)(C)CCSCCNC(=O)c1cccnc1 [SKK-021] | < 500 | > 2000 | 93 | 70 | 12 (≈ 42.5 µM) | 5 (≈ 17.7 µM) | 10 (≈ 35.4 µM) | < 5
6 | C[Si](C)(C)CCSCCNC(=O)c1ccco1 [SKK-022] | < 1000 | > 2000 | 58 | 65 | 15 (≈ 55.3 µM) | 9 (≈ 33.2 µM) | 17 (≈ 62.6 µM) | 20 (≈ 73.7 µM)
7 | C[Si](C)(C)CCSCCNC(=O)c1cccs1 [SKK-023] | > 1000 | > 2000 |  |  |  |  |  | 
8 | C[Si](C)(C)CCSCCNC(=O)c1cccc2ccccc12 [SKK-024] | > 2000 | > 3000 | 60 | 62 | 18 (≈ 54.3 µM) | 13 (≈ 39.2 µM) | 14 (≈ 42.2 µM) | 25 (≈ 75.4 µM)
9 | CC(=O)NCCSCC[Si](C)(C)C [SKK-025] | ~100 | 1000 to 2000 |  |  |  |  |  | 
10 | C[Si](C)(C)CCSCCNC(=O)C1CCCCC1 [SKK-026] | 500 to 1000 | 1000 to 2000 |  |  |  |  |  | 
11 | CCCCCCCC(=O)NCCSCC[Si](C)(C)C [SKK-027] | 2000 to 3000 | > 3000 |  |  |  |  |  | 
12 | Cc1ccc(S(=O)(=O)NCCSCC[Si](C)(C)C)cc1 [SKK-028] | > 2500 | > 3000 | 85 | 55 | 30 (≈ 90.5 µM) | 14 (≈ 42.2 µM) | 10 (≈ 30.2 µM) | 14 (≈ 42.2 µM)
